Source: patent EP1054892B1, “AZOLE PEPTIDOMIMETICS AS THROMBIN RECEPTOR ANTAGONISTS” (Ortho-McNeil Pharmaceutical, Inc., priority 1998, dated 1999)
Numbered stars: 1 amine (or outer) side, 2 acyl side, 3 side chain; on linkers, the order of the positions; unused ones are H or OH. Square brackets hold non-standard residues; d marks the D form. Peptide text beside a SMILES is read from it. Phe(4-F)ψ(2,4-Thz) = O=C(c1csc([C@H](Cc2ccc(F)cc2)N[*:1])n1)[*:2]; hArg = N=C(N)NCCCC[C@H](N)C(=O)O; Cha = N[C@@H](CC1CCCCC1)C(=O)O; Sar = CNCC(=O)O

Assays:
gel-filtered platelets [1] = assay: In vitro inhibition of thrombin-induced gel-filtered platelet aggregation; type: cell-based; conditions: agonist thrombin, gel-filtered human platelets, read-out: Platelet Aggregation** IC50 Thr*
Description: IN VITRO INHIBITION OF THROMBIN-INDUCED GEL-FILTERED PLATELET AGGREGATION ASSAY.
The percentage of platelet aggregation is calculated as an increase in light transmission of compound-treated platelet concentrate vs. control-treated platelet concentrate. Human blood is obtained from drug free, normal donors in tubes containing 0.13 M sodium citrate. Platelet rich plasma (PRP) is collected by centrifugation of whole blood at 200 x g for 10 min at 25°C. The PRP (5 mL) is gel filtered through Sepharose 2B (bed volume 50 mL), and the platelet count is adjusted to 2x10^7 platelets per sample. The following constituents are added to a siliconized cuvette: concentrated platelet filtrate and Tyrode's buffer (0.14 M NaCI, 0.0027 M KCI, 0.012 M NaHCO3, 0.76 mM Na2HPO4, 0.0055 M glucose, 2 mg/mL BSA and 5.0 mM HEPES @ pH 7.4) in an amount equal to 350 µl, 50 µl of 20 mM calcium and 50 µl of the test compound. Aggregation is monitored in a BIODATA aggregometer for the 3 min following the addition of agonist (thrombin 50 µl of 1 unit/mL).
The table contains IC50 values (µM) of the compounds in a thrombin receptor binding assay, and IC50 values (µM) against platelet aggregation stimulated by two agonists, thrombin or SFLLRN-NH2 (TRAP).
* µM ** Thrombin-induced aggregation of gel-filtered platelets in µM.

gel-filtered platelets [2] = assay: In vitro inhibition of SFLLRN-NH2 (TRAP)-stimulated gel-filtered platelet aggregation; type: cell-based; conditions: agonist SFLLRN-NH2 (TRAP), gel-filtered human platelets
thrombin receptor = molecular target: T1, thrombin receptor (Homo sapiens, UniProt P25116); assay: In vitro thrombin receptor binding assay (CHRF membranes, tritiated 721-40); conditions: displacement of tritiated 721-40 (Ser-pFPhe-Har-Leu-Har-Lys-Tyr-NH2), read-out: Thr Receptor Binding IC50*
T1 construct: CHRF membranes (Jones, Biochim. Biophys. Acta 1992, 1136, 272) are thawed from -70°C; endogenous in cells; host or cells: CHRF cell membranes
T1 sequence (P25116 22-425): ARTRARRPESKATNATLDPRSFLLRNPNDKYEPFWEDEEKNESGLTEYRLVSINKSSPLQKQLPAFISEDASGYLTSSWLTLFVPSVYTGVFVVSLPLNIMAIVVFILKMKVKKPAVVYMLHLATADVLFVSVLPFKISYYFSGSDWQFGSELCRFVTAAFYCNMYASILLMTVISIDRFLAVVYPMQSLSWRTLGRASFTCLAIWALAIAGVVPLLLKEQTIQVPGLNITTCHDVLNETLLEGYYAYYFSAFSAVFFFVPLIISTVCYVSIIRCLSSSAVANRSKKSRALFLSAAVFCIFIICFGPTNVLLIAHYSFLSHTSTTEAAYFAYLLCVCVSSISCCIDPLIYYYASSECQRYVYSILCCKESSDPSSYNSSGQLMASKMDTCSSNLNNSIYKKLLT
Description: IN VITRO THROMBIN RECEPTOR BINDING ASSAY.
CHRF membranes (Jones, Biochim. Biophys. Acta 1992, 1136, 272) are thawed from -70°C, centrifuged at maximum speed for 5 min, washed twice with binding buffer (50 mM HEPES containing 5 mM MgCl2 and 0.1% BSA), and re-suspended in binding buffer ([…]). 100 µl of membranes are added to the 24-Wallac plates and delivered to the Tomtech apparatus. In a typical experiment, 6 µl of samples (from a 125 µg/mL intermediary plate, 20%DMSO) and 44 µl buffer are delivered to the plates (final conc. of compounds is 3.7 µg/mL, 0.6% DMSO). Similarly, 6 µl 20%DMSO and 44 µl buffer are delivered to both column 1 (NSB) and column 12 (TB). 10 µl Ser-pFPhe-Har-Leu-Har-Lys-Tyr-NH2 (721-40; 500 µM in deionized water) is added to column 1.50 µl tritiated 721-40 (specific activity 46 Ci/mmol) is added to all the wells. The plates are mixed well for 20 seconds, incubated for 30 min, and then harvested with 10 mM HEPES/138 mM NaCl using the Skatron harvester. The filters (GF/C Brandel FPXLR 296) are presoaked 3 h in 0.5% polyethylenimine in HEPES/0.1 M N-acetylglucosamine) are set in saran wrap and dried for 3 min in the microwave, and placed in sample bags (Wallac 1450-432). 4.5 mL scintillation fluid (Wallac, Betaplate Scint 1205-440) is added. The bags are sealed, placed in filter cassettes (Wallac 1450-104), and analyzed on the microbeta counter. […]

Compound | IC50 (gel-filtered platelets [1]; Platelet) | IC50 (gel-filtered platelets [2]; Platelet) | IC50 (thrombin receptor) | IC50 (gel-filtered platelets [1]) | IC50 (gel-filtered platelets [2])
CNCC(=O)N[C@@H](Cc1ccc(F)cc1)c1nc(C(=O)N[C@@H](CC2CCCCC2)C(=O)N[C@@H](CCCNC(=N)N)C(=O)NCc2ccccc2)co1 [Compound 1, 2-[1(S)-Sarcosineamido-2-(4-fluorophenyl)ethyl]oxazole-4-carboxy-cyclohexylalanyl-arginine benzylamide] | 25 µM | 10 µM | – | – | –
N=C(N)NCCC[C@H](NC(=O)[C@H](CC1CCCCC1)NC(=O)c1coc([C@H](Cc2ccc(F)cc2)NC(=O)CCN)n1)C(=O)NCc1ccccc1 [Compound 2, 2-[1(S)-β-Alanineamido-2-(4-fluorophenyl)ethyl]oxazole-4-carboxycyclohexylalanyl-arginine benzylamide] | 10 µM | 7 µM | – | – | –
CNCC(=O)N[C@@H](Cc1ccc(F)cc1)c1nc(C(=O)N[C@@H](CC2CCCCC2)C(=O)N[C@@H](CCCNC(=N)N)C(=O)NCCc2ccccc2)cs1 [Compound 3, 2-[1(S)-Sarcosineamido-2-(4-fluorophenyl)ethyl]thiazole-4-carboxycyclohexylalanyl-arginine phenethylamide] | 12 µM | 0.6 µM | – | – | –
CNCC(=O)N[C@@H](Cc1ccc(F)cc1)c1nc(C(=O)N[C@@H](CC2CCCCC2)C(=O)N[C@@H](CCCCNC(=N)N)C(=O)N[C@@H](Cc2ccccc2)C(N)=O)cs1 [Compound 4] (H-[Sar][Phe(4-F)ψ(2,4-Thz)][Cha][hArg]F-NH2) | 45 µM | – | 5 µM | – | –
CC[C@H](C)[C@H](N)C(=O)N[C@@H](Cc1ccc(F)cc1)c1nc(C(=O)N[C@@H](CC2CCCCC2)C(=O)N[C@@H](CCCNC(=N)N)C(=O)N[C@@H](Cc2ccccc2)C(N)=O)cs1 [Compound 5] (H-I[Phe(4-F)ψ(2,4-Thz)][Cha]RF-NH2) | 43 µM | 9 µM | – | – | –
CNCC(=O)N[C@@H](Cc1ccc(F)cc1)c1nc(C(=O)N[C@@H](CCCCN)C(=O)N[C@@H](CCCNC(=N)N)C(=O)NCCc2ccccc2)cs1 [Compound 6, 2-[1(S)-Sarcosineamido-2-(4-fluorophenyl)ethyl]thiazole-4-carboxy-lysyl-arginine phenethylamide] | 26 µM | 4 µM | – | – | –
CNCC(=O)N[C@@H](Cc1ccc(F)cc1)c1nc(C(=O)N[C@@H](CC2CCCCC2)C(=O)N[C@@H](CCCNC(=N)N)C(=O)NCc2ccccc2)c(C)o1 [Compound 7, 2-[1(S)-Sarcosineamido-2-(4-fluorophenyl)ethyl]-5-methyloxazole-4-carboxy-cyclohexylalanyl-arginine benzylamide] | 19 µM | 22 µM | – | – | –
Cc1oc(C(Cc2ccc(F)cc2)NC(=O)C(N)Cc2cn(Cc3ccccc3)cn2)nc1C(=O)NC(CC1CCCCC1)C(=O)NC(CCCNC(=N)N)C(=O)NCc1ccccc1 [Compound 8, 2-[1(S)-N(tau)-Benzyl-histidineamido-2-(4-fluorophenyl)ethyl]-5-methyloxazole-4-carboxy-cyclohexylalanyl-arginine benzylamide] | 13 µM | 5 µM | – | – | –
CC(=O)N[C@@H](Cc1ccc(F)cc1)c1nc(C(=O)N[C@@H](CC2CCCCC2)C(=O)N[C@@H](CCCNC(=N)N)C(=O)NCc2ccccc2)c(C)o1 [Compound 9, 2-[1(S)-Acetamido-2-(4-fluorophenyl)ethyl]-5-methyloxazole-4-carboxy-cyclohexylalanyl-arginine benzylamide] | 24 µM | 11 µM | – | – | –
Cc1oc([C@H](Cc2ccc(F)cc2)N(C)C)nc1C(=O)N[C@@H](CC1CCCCC1)C(=O)N[C@@H](CCCNC(=N)N)C(=O)NCc1ccccc1 [Compound 10, 2-[1(S)-N,N-Dimethyl-2-(4-fluorophenyl)ethyl]-5-methyloxazole-4-carboxy-cyclohexylalanyl-arginine benzylamide] | – | – | – | 11 µM | 17 µM
